Laboratory results published in US4350700A, “Pharmaceutical composition containing 1,3,5-substituted biuret compound” (Taiho Pharmaceutical Company, Limited, priority 1979, dated 1982).
Like-named read-outs stand apart in the source and are kept apart here.

Assays:
[1] = tested on: acetic acid-induced stretching symptom of mouse; test: Analgesic activity, acetic acid-induced stretching method; format: in vivo, mice (ddy strain, male); conditions: for inhibition in vivo at 100 mg/kg / inhibition in vivo at 200 mg/kg: read-out: Analgesic activity, acetic acid-induced stretching method, inhibitory ratio
Description: (§1) Next, several tests for determining the pharmacological properties, in that acute toxicity, anti-pyretic activity, analgesic activity and anti-inflammatory activity of the present 1,3,5-substituted biuret compounds of the formula (1) were conducted and the test results are shown in Table (2). In the tests, each compounds to be tested was used as a suspension in 0.25% carboxymethylcellulose solution. Methods for testing are explained as follows:
(1) Acetic acid-induced stretching method
According to the method reported by Koster et.al., [Fed. Proc., Vol. 18, pp. 412 (1959)], the ddy strain of male mice (body weight, 20-25 g) were used as test animals. The mice were fasted overnight, 100 mg/kg body weight of the test compound was administered orally, then 1 hour after the administration, 0.2 ml of 0.7% acetic acid solution was injected intraperitoneally. The acetic acid-induced stretching symptom of mouse was observed. Analgesic activity of the test compound was calculated as the inhibitory ratio (%). In Table 2, the values in parentheses show the data obtained from the test by using the dosage other than 100 mg/kg body weight. Further, the values indicated with Δ marks show 50% effective dose, ED50 (mg/kg body weight).

[2] = tested on: pain reaction of the mouse caused by a clamp; test: Analgesic activity, Haffner method; format: in vivo, mice (ddy strain, male); conditions: for Analgesic activity, Haffner method, inhibitory ratio: mice
Description: as §1
According to the modified method reported by Fujimura et al., [Bulletin of the Institute for Chemical Research, Kyoto University, No. 25, pp. 36 (1951)], the ddy strain of male mice (body weight, 20-25 g) were used as test animals. The mice were fasted overnight, 100 mg/kg body weight of the test compound was administered orally, then 45 minutes after the administration, the threshhold amount (1.5-2.5 mg/kg body weight) of morphine hydrochloride was injected subcutaneously. Then 1-hour pain reaction of the mouse caused by a clamp was observed. Analgesic activity of the test compound was calculated as the inhibitory ratio (%). In Table 2, the values in parentheses show the data obtained from the test by using the dosage other than 100 mg/kg body weight. Further, the values indicated with Δ marks show 50% effective dose, ED50 (mg/kg body weight).

[3] = tested on: carrageenin-induced inflammation of the hindpaw of the rat; test: Anti-inflammatory activity, acute carrageenin-induced inflammatory test; format: in vivo, rats (Wistar strain, male); conditions: Rattus norvegicus, read-out: Anti-inflammatory activity, inflammation inhibitory ratio
Description: as §1
4. Anti-inflammatory Activity
According to the method of acute carrageenin-induced inflammatory test [Folia Pharmacologia Japonica, Vol. 56, pp. 575 (1960)], the Wistar strain of male rats (body weight, 150-180 g) were used as test animals. The rats were fasted overnight, 100 mg/kg body weight of the test compound was administered orally, then 1 hour after the administration, 0.1 ml of 1% carrageenin solution, as the inflammation inducing agent, was injected subcutaneously to the hindpaw of the rat and the volume of the hindpaw was measured at time sequences. Anti-inflammatory activity of the test compound was calculated as inflammation inhibitory ratio (%) at 3 hours after the injection of inflammation inducing agent.

ddy strain of male mice = test: Acute toxicity (oral, general symptom and death observed for 7 days); format: in vivo; conditions: 7 days
Description: as §1
The ddy strain of male mice (body weight, 20-25 g) were used as test animals. The mice were fasted overnight and the compound to be tested was administered orally. […] The lethal dose (mg/kg, body weight) of the test compound was determined in connection with the death number of mice/the number of mice tested. In Table 2, the values indicated with Δ marks are 50% lethal dose, LD50 (mg/kg, body weight).

[4] = tested on: 10% dry-yeast suspension-induced fever of rats; test: Anti-pyretic activity (dry-yeast induced fever, febril index); format: in vivo, rats (Wistar strain, male); conditions: oral, febril index up to 4 hours after administration, dose not stated
Description: as §1
According to the method reported by Tanabe [Folia Pharmacologia Japonica, Vol. 73, pp. 803 (1977)], the Wistar strain of male rats (150-180 g body weight) were used as test animals. The rats were fasted overnight, and 1 ml/100 g (body weight) of 10% dry-yeast suspension were subcutaneously injected on the back of the rats. Five hours afte the injection, the test compound was administered orally, then the body temperature of the rat was measured time sequences. Anti-pyretic activity of the test compound was determined as the FI (febril index) by integrating pyrogenetic curve up to 4 hours after the administration of the test compound with time, and indicated as inhibitory ratio (%) shown by the following formula, [formula]

[5] = 100 mg/kg oral, rats, 3 hours after carrageenin
[6] = 200 mg/kg oral, rats, 3 hours after carrageenin

Row | Structure (SMILES) | inhibition in vivo at 100 mg/kg ([1]; po) | Analgesic activity, Haffner method, inhibitory ratio ([2]; 100 mg/kg oral) | inhibition in vivo at 100 mg/kg [3, 5] | Acute toxicity, death number of mice/number of mice tested (ddy strain of male mice; 1000 mg/kg oral) | Acute toxicity, death number of mice/number of mice tested (ddy strain of male mice; 2000 mg/kg oral) | Analgesic activity, Haffner method, inhibitory ratio ([2]; 200 mg/kg oral) | also measured
1 | CCN(C(=O)NC)C(=O)Nc1ccccc1 [Compound No. 21, 1-Methyl-3-ethyl-5-phenylbiuret] | 50% | 37.5% | 56% | 1/4 | 3/4 | – | –
2 | CNC(=O)N(C(=O)Nc1ccccc1)c1ccccc1 [Compound No. 22, 1-methyl-3,5-diphenylbiuret] | 37.5% | – | 35% | – | 0/4 | 50% | –
3 | CCNC(=O)NC(=O)Nc1ccccc1 [Compound No. 23, 1-ethyl-5-phenylbiuret] | 62.5% | – | 49% | – | 0/4 | 60% | –
4 | CNC(=O)N(C)C(=O)Nc1ccccc1C(F)(F)F [compound 7, 1,3-Dimethyl-5-(2-trifluoromethylphenyl)biuret] | 62.5% | 12.5% | – | 0/4 | 3/4 | – | Anti-pyretic activity, inhibitory ratio [4]: 121%
5 | CNC(=O)N(C)C(=O)Nc1ccc(CC(=O)O)cc1 [compound 11, 1,3-Dimethyl-5-(4-carboxymethylphenyl)biuret] | 25% | 37.5% | – | – | 0/4 | – | Anti-pyretic activity, inhibitory ratio [4]: 7%
6 | CNC(=O)N(C)C(=O)NCc1ccccc1 [compound 12] | – | 50% | – | 4/4 | – | – | inhibition in vivo at 100 mg/kg ([1]; 100 mg/kg oral, mice): 100%; inhibition in vivo at 100 mg/kg ([3]; po, 3 h): 47%; Acute toxicity, death number of mice/number of mice tested (ddy strain of male mice; 500 mg/kg oral): 0/4
7 | CCNC(=O)NC(=O)Nc1ccccc1Cl [compound 24, 1-Ethyl-5-(2-chlorophenyl)biuret] | – | – | – | – | 0/4 | 37.5% | inhibition in vivo at 200 mg/kg ([1]; 200 mg/kg oral, mice): 25%; inhibition in vivo at 200 mg/kg [3, 6]: 77%
8 | CCNC(=O)NC(=O)Nc1cccc(Cl)c1 [compound 25, 1-Ethyl-5-(3-chlorophenyl)biuret] | – | – | – | – | 0/4 | 37.5% | inhibition in vivo at 200 mg/kg ([1]; 200 mg/kg oral, mice): 25%; inhibition in vivo at 200 mg/kg [3, 6]: 86%
9 | CCNC(=O)NC(=O)Nc1ccc(Cl)cc1 [compound 26] | – | – | – | – | 0/4 | 25% | inhibition in vivo at 200 mg/kg ([1]; po): 12.5%; inhibition in vivo at 200 mg/kg [3, 6]: 76%
10 | CCNC(=O)NC(=O)Nc1ccc(Cl)c(Cl)c1 [compound 27, 1-Ethyl-5-(3,4-dichlorophenyl)biuret] | – | – | – | 0/4 | 1/4 | 12.5% | inhibition in vivo at 200 mg/kg ([1]; po): 12.5%; inhibition in vivo at 200 mg/kg ([3]; po, 3 h): 44%
11 | CCNC(=O)NC(=O)NCc1ccccc1 [compound 29, 1-Ethyl-5-benzylbiuret] | 12.5% | 25% | 31% | 0/4 | 1/4 | – | –
12 | CCNC(=O)N(C)C(=O)Nc1ccc(O)cc1 [compound 34, 1-Ethyl-3-methyl-5-(4-hydroxyphenyl)biuret] | – | 12.5% | 19% | – | 0/4 | – | inhibition in vivo at 100 mg/kg ([1]; 100 mg/kg oral, mice): 25%
13 | CCCNC(=O)NC(=O)NCc1ccccc1 [compound 42] | – | – | – | – | 0/4 | 50% | inhibition in vivo at 200 mg/kg ([1]; 200 mg/kg oral, mice): 82.5%; inhibition in vivo at 200 mg/kg [3, 6]: 31%
14 | CCCCNC(=O)NC(=O)NCc1ccccc1 [compound 48] | – | – | – | – | 0/4 | – | ED50 ([1]; oral, mice (Δ values; range in parentheses), read-out: Analgesic activity, acetic acid-induced stretching method, 50% effective dose ED50): 111 mg/kg; ED50 ([2]; Mus musculus, oral, mice (Δ values; range in parentheses), read-out: Analgesic activity, Haffner method, 50% effective dose ED50): 110 mg/kg; inhibition in vivo at 200 mg/kg [3, 6]: 46%
15 | CN(C(=O)NCCCl)C(=O)Nc1ccccc1 [compound 53, 1-(2-Chloroethyl)-3-methyl-5-phenylbiuret] | 12.5% | 25% | – | – | 0/4 | – | inhibition in vivo at 100 mg/kg ([3]; po, 3 h): 40%
16 | CN(C(=O)NCCC#N)C(=O)Nc1ccccc1 [compound 54, 1-(2-Cyanoethyl)-3-methyl-5-phenylbiuret] | 50% | 12.5% | 39% | 0/4 | 3/4 | – | –
17 | CN(C)CCNC(=O)N(C)C(=O)Nc1ccccc1 [compound 55, 1-(2-Dimethylaminoethyl)-3-methyl-5-phenylbiuret] | 12.5% | 12.5% | 22% | 3/4 | – | – | Acute toxicity, death number of mice/number of mice tested (ddy strain of male mice; 500 mg/kg oral): 2/4
18 | CN(C(=O)NCCO)C(=O)Nc1ccccc1 [compound 56, 1-(2-Hydroxyethyl)-3-methyl-5-phenylbiuret] | 62.5% | 37.5% | 42% | – | 0/4 | – | –
19 | CONC(=O)N(C)C(=O)Nc1ccccc1 [compound 63, 1-Methoxy-3-methyl-5-phenylbiuret] | 50% | 25% | – | 0/4 | 4/4 | – | inhibition in vivo at 100 mg/kg ([3]; po, 3 h): 50%
